Read-outs that look alike come from different tables or passages of the source.
What was measured:
A549 cell line = experiment: MTT assay, inhibition of A549 tumor cell proliferation; assay type: cell-based, Human; settings: 48 h treatment, read-out: ID50 (µM) A549
Experimental: Human A549 cell line and C6 rat glioma cell line were maintained in Dulbecco's modified Eagle's medium (DMEM) complete medium (Sigma-Aldrich, St. Louis, MO), supplemented with fetal bovine serum (FBS, 10%; GLinus, Madrid, Spain), glutamine (2 mM), penicillin (50 IU/mL), and streptomycin ([…]), at 37 °C in a 5% CO2 humidified atmosphere. Exponentially growing cells were seeded on 96-well plates (Beckton Dickinson, Le Pont de Claix, France), in DMEM complete medium, at a density of 1.5 x 10^4 cells/well for C6 cell and 5 x 10^3 cells/well for A549 cells respectively. The cells were allowed to attach with 5% of CO2 at 37°C for overnight, and then, to serum starve the cells, the medium was replaced by 100 µL of fresh DMEM without FBS and maintained overnight. Stock solutions in EtOH of the glycoside derivatives of formula (I) of Example 2 (50 mM) or stock solutions in PBS of the micelles of Example 3 were finally dissolved in DMEM complete medium for the treatments. The cells were treated with serial dilutions of glycoside derivatives of formula (I) of Example 2 or micelles of Example 3 for 48 h. For the experiments with micelles of Example 3, some 96-well plates were placed over a MagnetoFACTOR-96 device (Chemicell) to produce a strong magnetic field to each well and increase the proximity of the nanoparticles to the cells. Also, iron oxide nanoparticles coated with azelaic acid were tested (Azelaic-NP, obtained as described in Chemistry - A European Journal, 2008, 14 (30), 9126-9130) Cell proliferation was evaluated with an MTT assay (Sigma-Aldrich), based on the conversion of the water-soluble MTT into an insoluble formazan. Briefly, after 48 h of compound treatment, the medium was replaced by 100 µL of fresh DMEM without phenol red containing MTT (5 mg/mL) solution, and cells were incubated for additional 3 h at 37 °C with 5% CO2. After this time, the medium was removed, the precipitated formazan was dissolved in 100 µL of DMSO, and the solution optical density was measured at 595 nm in Spectramax Plus equipment (Molecular Devices Corporation). […]

C6 rat glioma cell line = experiment: MTT assay, inhibition of C6 tumor cell proliferation; assay type: cell-based; settings: for IC50: free glycoside derivative, 48 h treatment, MTT, read-out: ID50 (µM) C6
Experimental: Human A549 cell line and C6 rat glioma cell line were maintained in Dulbecco's modified Eagle's medium (DMEM) complete medium (Sigma-Aldrich, St. Louis, MO), supplemented with fetal bovine serum (FBS, 10%; GLinus, Madrid, Spain), glutamine (2 mM), penicillin (50 IU/mL), and streptomycin ([…]), at 37 °C in a 5% CO2 humidified atmosphere. Exponentially growing cells were seeded on 96-well plates (Beckton Dickinson, Le Pont de Claix, France), in DMEM complete medium, at a density of 1.5 x 10^4 cells/well for C6 cell and 5 x 10^3 cells/well for A549 cells respectively. The cells were allowed to attach with 5% of CO2 at 37°C for overnight, and then, to serum starve the cells, the medium was replaced by 100 µL of fresh DMEM without FBS and maintained overnight. Stock solutions in EtOH of the glycoside derivatives of formula (I) of Example 2 (50 mM) or stock solutions in PBS of the micelles of Example 3 were finally dissolved in DMEM complete medium for the treatments. The cells were treated with serial dilutions of glycoside derivatives of formula (I) of Example 2 or micelles of Example 3 for 48 h. For the experiments with micelles of Example 3, some 96-well plates were placed over a MagnetoFACTOR-96 device (Chemicell) to produce a strong magnetic field to each well and increase the proximity of the nanoparticles to the cells. Also, iron oxide nanoparticles coated with azelaic acid were tested (Azelaic-NP, obtained as described in Chemistry - A European Journal, 2008, 14 (30), 9126-9130) Cell proliferation was evaluated with an MTT assay (Sigma-Aldrich), based on the conversion of the water-soluble MTT into an insoluble formazan. Briefly, after 48 h of compound treatment, the medium was replaced by 100 µL of fresh DMEM without phenol red containing MTT (5 mg/mL) solution, and cells were incubated for additional 3 h at 37 °C with 5% CO2. After this time, the medium was removed, the precipitated formazan was dissolved in 100 µL of DMSO, and the solution optical density was measured at 595 nm in Spectramax Plus equipment (Molecular Devices Corporation). Absorption values were referred to positive proliferation controls (cells cultured in DMEM complete medium) and negative proliferation controls cells cultured in DMEM without FBS). Inhibition was expressed as an ID50 value, the compound concentration that reduced maximal proliferation by 50%, and the results are shown in Table 3. Table 3. Biological activity of glycoside derivatives of formula (I) and micelles comprising said glycoside derivatives.

[1] = Solubility / stability in water; assay type: physicochemical; settings: pure water, observed by eye
Text: For GC-22 and TFA-GC22, the glycosides alone are not soluble in pure water, while the micelles GC-22-NPs and TFA-GC22-NPs are stable in the aqueous phase. Precipitate of GC-22 and TFA-GC22 can be observed by eye straight away in a pure water solution and no re-dispersion is produced when the aqueous micellar solution is mixed with an organic solvent selected from the group consisting of dichloromethane, chloroform, hexane, heptane, toluene, in a volume proportion of 1:1.

[2] = Homo sapiens, A549, free glycoside derivative

Row | IC50 (A549 cell line; [2]) [µM] | IC50 (C6 rat glioma cell line; Rattus norvegicus, Glioma cell) [µM] | solubility in water [1] | SMILES | IC50 (A549 cell line; free glycoside derivative) [µM] | IC50 (C6 rat glioma cell line) [µM] | inhibition of proliferation of C6 tumor cells (C6 rat glioma cell line; result in words)
1 | 10 | 15.5 ± 0.3 | not soluble | CCCCCCCC/C=C\CCCCCCCCO[C@H]1O[C@H](CO)[C@@H](O)[C@H](O)[C@H]1NC(C)=O [GC22, Oleyl 2-acetamido-2-deoxy-α-D-glucopyranoside] |  |  | 
2 | 8.6 | 14.2 ± 0.3 | not soluble | CCCCCCCC/C=C\CCCCCCCCO[C@H]1O[C@H](CO)[C@@H](O)[C@H](O)[C@H]1NC(=O)C(F)(F)F [TFAGC22, Oleyl2-deoxy-2-trifluoroacetamido-α-D-glucopyranoside] |  |  | 

Row | SMILES | IC50 (A549 cell line; [2]) [µM] | IC50 (C6 rat glioma cell line; Rattus norvegicus, Glioma cell) [µM] | solubility in water [1] | IC50 (A549 cell line; free glycoside derivative) [µM] | IC50 (C6 rat glioma cell line) [µM] | inhibition of proliferation of C6 tumor cells (C6 rat glioma cell line; result in words)
3 | CCCCCCCC/C=C\CCCCCCCCO[C@H]1O[C@H](COS(=O)(=O)[O-])[C@@H](O)[C@H](O)[C@H]1NC(C)=O.[K+] [IG20, Oleyl 2-acetamido-2-deoxy-6-O-(oxosulfonyl)-α-D-glucopyranoside potassium salt] |  |  | soluble in water | 97 | > 100 | did not show inhibition
